Laboratory results as given in patent US20240327411A1, “SIRT6 ACTIVATORS” (The Board of Regents of The University of Texas System, priority 2022, published 2024).

Legend:
[1] = test system: colorectal cancer (CRC) cell lines; details: various CRC cell lines; literature; cited from earlier work
[2] = in mice; literature; cited from earlier work
[3] = test system: CRC tumor; details: cell line- and patient-derived xenografts, APCmin/+ spontaneous CRC model; literature; cited from earlier work
[4] = molecular target: T1, Sirt3 (Homo sapiens, UniProt Q9NTG7); test: Sirt3 deacetylation activity assay kit; details: time course, FIG. 3
T1 sequence (Q9NTG7 1-399): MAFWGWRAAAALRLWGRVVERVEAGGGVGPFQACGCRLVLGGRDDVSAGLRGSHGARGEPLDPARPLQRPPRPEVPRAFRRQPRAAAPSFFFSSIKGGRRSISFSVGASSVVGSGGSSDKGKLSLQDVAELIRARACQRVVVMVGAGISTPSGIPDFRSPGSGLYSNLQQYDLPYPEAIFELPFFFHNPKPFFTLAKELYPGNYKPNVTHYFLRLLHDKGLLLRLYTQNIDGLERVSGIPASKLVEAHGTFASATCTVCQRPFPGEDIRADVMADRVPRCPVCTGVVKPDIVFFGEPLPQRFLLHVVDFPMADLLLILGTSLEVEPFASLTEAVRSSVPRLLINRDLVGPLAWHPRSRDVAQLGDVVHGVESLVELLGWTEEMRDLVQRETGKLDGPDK
Experimental: (§2) Sirt6/Sirt1/Sirt2/Sirt3 activity was tested by Activity Assay Kits (Abcam) according to the manufacturer's instruction with minor modification. […] All experiments were conducted at room temperature.

[5] = test system: BV2 cells; test: LPS-induced inflammatory gene mRNA expression in BV2 cells, q-PCR; assay type: cell-based, murine; details: for LPS-induced expression of IL-1β, IL-6, MCP-1, and TNFα: 30 μM pretreatment 30 minutes
[6] = molecular target: T2, Sirt6 (Homo sapiens, UniProt Q8N6T7); test: Sirt6-dependent peptide deacetylation, FLUOR DE LYS / Sirt6 fluorometric activity kit; assay type: biochemical; details: mean ± SD, at least two independent experiments
T2 sequence (Q8N6T7 whole entry): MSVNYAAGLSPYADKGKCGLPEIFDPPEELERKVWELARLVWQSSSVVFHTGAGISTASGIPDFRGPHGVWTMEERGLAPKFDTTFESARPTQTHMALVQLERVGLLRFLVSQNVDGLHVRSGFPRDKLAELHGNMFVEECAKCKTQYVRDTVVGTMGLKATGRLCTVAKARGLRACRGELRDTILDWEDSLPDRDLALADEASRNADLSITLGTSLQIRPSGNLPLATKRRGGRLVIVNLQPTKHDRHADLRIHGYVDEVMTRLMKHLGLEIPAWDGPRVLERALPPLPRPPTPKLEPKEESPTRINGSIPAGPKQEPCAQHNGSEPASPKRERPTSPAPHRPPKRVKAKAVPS
Experimental: as §2

[7] = molecular target: T2, Sirt6; test: Nucleosome test: Sirt6-dependent H3K9 deacetylation of nucleosomes from HEK293T cells, Western blot; assay type: biochemical; details: 100 μM, 30° C., 60 minutes
Experimental: (§1) . Nucleosomes extracted from HEK293T cells were incubated with 100 μM of selected compounds or Vehicle at 30° C. for 60 minutes. Acetylated H3K9 and total H3 were detected by Western blot. The level of acetylated H3K9 was quantified by Image Lab software. FIGS. 5B and 5C show the cell viability which was assessed by MTT assay. R28 cells were treated with 30 μM or 100 μM compounds for 24 hours. Data were presented as mean±SEM. The experiment was repeated at least three times. ***p<0.001; ****p<0.0001.
Next, effects of selected compounds were explored for Sirt6-dependent deacetylation of complete nucleosomes extracted from human embryonic kidney (HEK) 293T cells, as nucleosomes represent more physiologically relevant substrates. […]. Briefly, HEK 293T cells in 100 mm dish were lysed with lysis buffer supplemented with PIC and PMSF for 30 min. After centrifugation for 10 min at 5000 rpm at 4° C., supernatant was removed and nuclei pellet was resuspended with digestion buffer supplemented with PIC and PMSF for 5 min at 37° C. Working enzymatic sharing cocktail was added to digest the chromatin, and EDTA was added after incubation to stop the digestion. Digested nucleosome was obtained in the supernatant after centrifugation for 10 min at 15000 rpm at 4° C. and the concentration was quantified by measuring the absorbance at […]. 20 μg nucleosome was incubated in solution (1× buffer, 0.5 μL recombinant Sirt6 and […] NAD, from SIRT6 ACTIVITY ASSAY KIT) for 60 min. To test the effects of the compounds on Sirt6 activity, corresponding compound or DMSO control was added before incubation. The reaction mixture was analyzed by Western blot.
Proteins were extracted from cells with PIERCE RIPA BUFFER (89901, ThermoFisher Scientific), and protein concentration was determined using PIERCE BCA PROTEIN ASSAY KIT (23225, ThermoFisher Scientific). Equal amounts of protein were loaded and separated by SDS-PAGE gel. Next, separated proteins were transferred onto Nitrocellulose Blotting Membranes (A29457237, GE Healthcare Life science), and then the membranes were blocked by 5% non-fat dry milk. After incubation with corresponding primary antibodies against H3K9ac, H3 and Sirt6 at a 1:1000 dilution, or α-tubulin at a 1:5000 dilution, goat anti-mouse or goat anti-rabbit secondary antibodies at a 1:5000 dilution were applied. Finally, membranes were incubated with enhanced chemiluminescent and protein bands were detected by CHEMIDOC imaging system (Bio-Rad). Image-Lab software was used to analyze the intensities of the protein bands.

[8] = molecular target: T3, Sirt1 (Homo sapiens, UniProt Q96EB6); test: Sirt1 deacetylation activity assay kit; details: time course, FIG. 3
T3 sequence (Q96EB6 1-747): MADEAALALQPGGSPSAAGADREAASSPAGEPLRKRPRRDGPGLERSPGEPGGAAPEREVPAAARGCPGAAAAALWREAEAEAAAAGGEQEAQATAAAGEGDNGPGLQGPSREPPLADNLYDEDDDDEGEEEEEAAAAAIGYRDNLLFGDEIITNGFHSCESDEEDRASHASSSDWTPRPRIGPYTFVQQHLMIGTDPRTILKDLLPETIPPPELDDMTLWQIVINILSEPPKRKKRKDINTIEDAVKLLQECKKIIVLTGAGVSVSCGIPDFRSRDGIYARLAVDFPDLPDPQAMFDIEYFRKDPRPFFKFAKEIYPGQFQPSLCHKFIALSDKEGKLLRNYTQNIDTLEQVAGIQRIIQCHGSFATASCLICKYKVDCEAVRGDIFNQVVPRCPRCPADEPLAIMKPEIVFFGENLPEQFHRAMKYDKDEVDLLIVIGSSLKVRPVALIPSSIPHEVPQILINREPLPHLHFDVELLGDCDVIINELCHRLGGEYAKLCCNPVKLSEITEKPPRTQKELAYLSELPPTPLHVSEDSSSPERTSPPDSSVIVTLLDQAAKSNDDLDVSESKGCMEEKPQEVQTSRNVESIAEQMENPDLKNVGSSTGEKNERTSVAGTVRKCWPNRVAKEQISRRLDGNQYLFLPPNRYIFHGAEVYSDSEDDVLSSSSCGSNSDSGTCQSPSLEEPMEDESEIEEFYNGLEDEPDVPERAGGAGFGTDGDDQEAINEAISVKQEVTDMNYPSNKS
Experimental: as §2

[9] = test system: retinal precursor cells (R28); test: MTT cell viability assay in R28 cells; assay type: cell-based; details: 30 μM, 24 hours
Experimental: as §1, with “FIGS. 5A-5C: FIGS. 5A-5C display the deacetylation effect and cytotoxicity of selected compounds. […] Nucleosomes” for “. Nucleosomes”
R28 cells were seeded in 96 well plates at a density of 1×10^4/well overnight, then treated with compounds for 24 h. MTT (MilliporeSigma) was added to cells (20 μL/well) and incubated for 3.5 h. After medium was removed, 100 μL dimethyl sulfoxide (DMSO) was added into each well. Absorbance was measured at 540 nm using a microplate reader.

[10] = test system: A549-hACE2 cells; test: Cell viability assay in A549-hACE2 cells; details: 50 μM, 48 h
[11] = test system: SARS-CoV-2; test: microbe, parasite or virus in culture; assay type: cell-based
[12] = molecular target: T2, Sirt6; details: literature value; cited from earlier work
[13] = test system: Sirt1, 2, and 3; details: literature; cited from earlier work
[14] = test system: human hepatocellular carcinoma (HCC) cells; details: literature, cited from earlier work
[15] = test system: HCC tumor; details: mouse xenograft models; literature; cited from earlier work
[16] = BV2 cells, 100 ng/mL LPS 6 hours, mRNA

Cc1cc(F)c(Br)cc1NS(=O)(=O)c1ccc(NS(=O)(=O)c2cc(Cl)cc(Cl)c2)cc1CN1CCOC[C@H]1C [MDL-811]
antiproliferative effects [1]: broad antiproliferative effects
bioavailability (F) [2]: 92.96%
anti-tumor efficacy [3]: in vivo anti-tumor efficacy

CN(C)CCN1CCN(c2ncccc2C2Nc3ccccc3-n3cccc32)CC1 (stereo not shown) [Compound 38, 2-(4-(3-(4,5-Dihydropyrrolo[1,2-a]quinoxalin-4-yl)pyridin-2-yl)piperazin-1-yl)-N,N-dimethylethan-1-amine]
effect on Sirt3 deacetylation [4]: no significant effects
LPS-induced expression of IL-1β, IL-6, MCP-1, and TNFα [5, 16]: strongly inhibited
ICAM-1 induction ([5]; BV2 cells, 30 μM, 100 ng/mL LPS 6 hours, mRNA): slight inhibition
LPS-induced proinflammatory cytokine/chemokine production ([5]; summary statement): strongly repressed
Activation Fold 30 μM ([6]; compound at 30 μM): 3.83 ± 0.46 fold
Activation Fold 100 μM ([6]; compound at 100 μM): 7.38 ± 0.6 fold
acetylation of H3K9 in the nucleosome test [7]: significantly decreased the acetylation of H3K9
effect on Sirt1 deacetylation [8]: no significant effects
toxicity on retinal precursor cells (R28) [9]: no obvious toxicity
cytotoxicity at the highest tested concentration [10]: none of these compounds exhibited significant cytotoxicity
potency in inhibiting SARS-CoV-2 infection (in words) [11]: micromolar potency
EC50 ([11]; Severe acute respiratory syndrome coronavirus 2, 48 h, read-out: EC50, SARS-CoV-2 infection): 9.3 µM

c1cncc(C2Nc3ccccc3-n3cccc32)c1 (stereo not shown) [UBCS039, reference compound]
maximum activation (Emax) of Sirt6 deacetylation [12]: ~2 fold
LPS-induced expression of IL-1β, IL-6, MCP-1, and TNFα [5, 16]: strongly inhibited
potency in inhibiting SARS-CoV-2 infection (in words) [11]: micromolar potency
effects on basal Sirt1, 2, and 3 deacetylation activities [13]: no obvious effects

COC(=O)c1cc(NS(=O)(=O)c2cc(Cl)cc(Cl)c2)ccc1S(=O)(=O)Nc1cc(Br)c(F)cc1C [MDL-800]
H3K9 and H3K56 deacetylation ([14]; human HCC cells, dose-dependently): significantly promoted
proliferation of HCC cells [14]: inhibited their proliferation
HCC tumor growth [15]: suppressed HCC tumor growth
